Measured values taken from PubChem BioAssay (NCI).
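Here, GI50 denotes the concentration required for 50% inhibition of growth. TGI: total growth inhibition.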

How the values were obtained:
Assay in all cases: NCI anticancer screen, dose series, 384-well format
SNB-75 CNS = system: SNB-75 CNS
HOP-92 NSCLC = system: HOP-92 NSCLC
HCT-15 colon = system: HCT-15 colon
MDA-MB-231 breast = system: MDA-MB-231 breast
HCT-116 colon = system: HCT-116 colon
UO-31 renal = system: UO-31 renal
SF-295 CNS = system: SF-295 CNS
PC-3 prostate = system: PC-3 prostate
HT29 colon = system: HT29 colon
SNB-19 CNS = system: SNB-19 CNS
MDA-MB-435 melanoma = system: MDA-MB-435 melanoma
SW-620 colon = system: SW-620 colon
OVCAR-8 ovarian = system: OVCAR-8 ovarian
TK-10 renal = system: TK-10 renal
NCI/ADR-RES ovarian = system: NCI/ADR-RES ovarian
RPMI-8226 leukemia = system: RPMI-8226 leukemia
MOLT-4 leukemia = system: MOLT-4 leukemia
SF-268 CNS = system: SF-268 CNS
KM12 colon = system: KM12 colon
T-47D breast = system: T-47D breast
HCC-2998 colon = system: HCC-2998 colon
EKVX NSCLC = system: EKVX NSCLC
NCI-H460 NSCLC = system: NCI-H460 NSCLC
BT-549 breast = system: BT-549 breast
K-562 leukemia = system: K-562 leukemia
786-0 renal = system: 786-0 renal
NCI-H322M lung = system: NCI-H322M lung
ACHN renal = system: ACHN renal
IGROV1 ovarian = system: IGROV1 ovarian
M14 melanoma = system: M14 melanoma
SF-539 CNS = system: SF-539 CNS
A498 renal = system: A498 renal
CAKI-1 renal = system: CAKI-1 renal
LOX IMVI melanoma = system: LOX IMVI melanoma
SK-MEL-5 melanoma = system: SK-MEL-5 melanoma
HL-60(TB) leukemia = system: HL-60(TB) leukemia
CCRF-CEM leukemia = system: CCRF-CEM leukemia
NCI-H23 lung = system: NCI-H23 lung
DU-145 prostate = system: DU-145 prostate
OVCAR-4 ovarian = system: OVCAR-4 ovarian
MDA-MB-468 breast = system: MDA-MB-468 breast
SN12C renal = system: SN12C renal
MCF7 breast = system: MCF7 breast
HS 578T breast = system: HS 578T breast
SK-OV-3 ovarian = system: SK-OV-3 ovarian
OVCAR-3 ovarian = system: OVCAR-3 ovarian
UACC-62 melanoma = system: UACC-62 melanoma
SK-MEL-2 melanoma = system: SK-MEL-2 melanoma
SK-MEL-28 melanoma = system: SK-MEL-28 melanoma
UACC-257 melanoma = system: UACC-257 melanoma
MALME-3M melanoma = system: MALME-3M melanoma
OVCAR-5 ovarian = system: OVCAR-5 ovarian
A549 NSCLC = system: A549 NSCLC
RXF 393 renal = system: RXF 393 renal
NCI-H226 lung = system: NCI-H226 lung
COLO 205 colon = system: COLO 205 colon
U251 glioblastoma = system: U251 glioblastoma
HOP-62 NSCLC = system: HOP-62 NSCLC
NCI-H522 lung = system: NCI-H522 lung

NC(=O)c1cccc2c(N[C@H](CN3CCC3)c3ccc(Cl)c(C(F)(F)F)c3)ncnc12
GI50 (SNB-75 CNS): 258 nM | TGI (SNB-75 CNS): 1570 nM | GI50 (HOP-92 NSCLC): 1320 nM | TGI (HOP-92 NSCLC): 3.35 µM | GI50 (HCT-15 colon): 1190 nM | TGI (HCT-15 colon): 8.43 µM | GI50 (MDA-MB-231 breast): 2720 nM | TGI (MDA-MB-231 breast): 13.7 µM | GI50 (HCT-116 colon): 1800 nM | TGI (HCT-116 colon): 5.39 µM | GI50 (UO-31 renal): 1580 nM | TGI (UO-31 renal): 9.03 µM | GI50 (SF-295 CNS): 1020 nM | TGI (SF-295 CNS): 3.22 µM | GI50 (PC-3 prostate): 345 nM | TGI (PC-3 prostate): 3.85 µM | GI50 (HT29 colon): 1400 nM | TGI (HT29 colon): 2980 nM | GI50 (SNB-19 CNS): 1730 nM | TGI (SNB-19 CNS): 5.2 µM | GI50 (MDA-MB-435 melanoma): 1320 nM | TGI (MDA-MB-435 melanoma): 5.51 µM | GI50 (SW-620 colon): 1860 nM | TGI (SW-620 colon): 7.73 µM | GI50 (OVCAR-8 ovarian): 2560 nM | TGI (OVCAR-8 ovarian): 11.2 µM | GI50 (TK-10 renal): 1250 nM | TGI (TK-10 renal): 3.18 µM | GI50 (NCI/ADR-RES ovarian): 2790 nM | TGI (NCI/ADR-RES ovarian): 10.3 µM | GI50 (RPMI-8226 leukemia): 1200 nM | TGI (RPMI-8226 leukemia): 2450 nM | GI50 (MOLT-4 leukemia): 88.2 nM | TGI (MOLT-4 leukemia): 718 nM | GI50 (SF-268 CNS): 1480 nM | TGI (SF-268 CNS): 4.2 µM | GI50 (KM12 colon): 920 nM | TGI (KM12 colon): 6.88 µM | GI50 (T-47D breast): 199 nM | TGI (T-47D breast): 1390 nM | GI50 (HCC-2998 colon): 1040 nM | TGI (HCC-2998 colon): 2230 nM | GI50 (EKVX NSCLC): 1150 nM | TGI (EKVX NSCLC): 5.01 µM | GI50 (NCI-H460 NSCLC): 366 nM | TGI (NCI-H460 NSCLC): 2400 nM | GI50 (BT-549 breast): 316 nM | TGI (BT-549 breast): 1520 nM | GI50 (K-562 leukemia): 1640 nM | TGI (K-562 leukemia): 3.2 µM | GI50 ([…]-0 renal): 482 nM | TGI (786-0 renal): 1940 nM | GI50 (NCI-H322M lung): 3.1 µM | TGI (NCI-H322M lung): 14.4 µM | GI50 (ACHN renal): 1950 nM | TGI (ACHN renal): 12.2 µM | GI50 (IGROV1 ovarian): 247 nM | TGI (IGROV1 ovarian): 1880 nM | GI50 (M14 melanoma): 1210 nM | TGI (M14 melanoma): 2480 nM | GI50 (SF-539 CNS): 195 nM | TGI (SF-539 CNS): 1630 nM | GI50 (A498 renal): 138 nM | TGI (A498 renal): 1520 nM | GI50 (CAKI-1 renal): 1290 nM | TGI (CAKI-1 renal): 3.65 µM | GI50 (LOX IMVI melanoma): 2180 nM | TGI (LOX IMVI melanoma): 7 µM | GI50 (SK-MEL-5 melanoma): 1380 nM | TGI (SK-MEL-5 melanoma): 2690 nM | GI50 (HL-60(TB) leukemia): 1560 nM | TGI (HL-60(TB) leukemia): 2910 nM | GI50 (CCRF-CEM leukemia): 410 nM | TGI (CCRF-CEM leukemia): 1750 nM | GI50 (NCI-H23 lung): 1730 nM | TGI (NCI-H23 lung): 6.24 µM | GI50 (DU-145 prostate): 2630 nM | TGI (DU-145 prostate): 13.8 µM | GI50 (OVCAR-4 ovarian): 3.02 µM | TGI (OVCAR-4 ovarian): 12 µM | GI50 (MDA-MB-468 breast): 256 nM | TGI (MDA-MB-468 breast): 1250 nM | GI50 (SN12C renal): 2100 nM | TGI (SN12C renal): 12.6 µM | GI50 (MCF7 breast): 362 nM | TGI (MCF7 breast): 1860 nM | GI50 (HS 578T breast): 750 nM | TGI (HS 578T breast): 2350 nM | GI50 (SK-OV-3 ovarian): 430 nM | TGI (SK-OV-3 ovarian): 2910 nM | GI50 (OVCAR-3 ovarian): 2720 nM | TGI (OVCAR-3 ovarian): 11.2 µM | GI50 (UACC-62 melanoma): 980 nM | TGI (UACC-62 melanoma): 2210 nM | GI50 (SK-MEL-2 melanoma): 1310 nM | TGI (SK-MEL-2 melanoma): 2660 nM | GI50 (SK-MEL-28 melanoma): 1260 nM | TGI (SK-MEL-28 melanoma): 2690 nM | GI50 (UACC-257 melanoma): 1020 nM | TGI (UACC-257 melanoma): 2190 nM | GI50 (MALME-3M melanoma): 457 nM | TGI (MALME-3M melanoma): 1710 nM | GI50 (OVCAR-5 ovarian): 2790 nM | TGI (OVCAR-5 ovarian): 11.2 µM | GI50 (A549 NSCLC): 1510 nM | TGI (A549 NSCLC): 6.39 µM | GI50 (RXF 393 renal): 231 nM | TGI (RXF 393 renal): 1340 nM | GI50 (NCI-H226 lung): 2350 nM | TGI (NCI-H226 lung): 8.74 µM | GI50 (COLO 205 colon): 951 nM | TGI (COLO 205 colon): 2160 nM | GI50 (U251 glioblastoma): 1890 nM | TGI (U251 glioblastoma): 10.4 µM | GI50 (HOP-62 NSCLC): 3.32 µM | TGI (HOP-62 NSCLC): 12 µM | GI50 (NCI-H522 lung): 1190 nM | TGI (NCI-H522 lung): 5.7 µM
